From patent US4755527A, “Aryl substituted aminomethyl benzene derivatives” (priority 1985, dated 1988)

Assays:
[1] = tested on: Guinea Pig Ileum; assay: In vitro evaluation of anticholinergic activity in the isolated guinea pig ileum; set-up: species or system guinea pig (male Hartley); details: Cavia porcellus; 4 mg/L; inhibition of field-stimulated contractile tension; read-out: Anticholinergic Inhibition of Guinea Pig Ileum (% inhibition at 4 mg/L)
Description: The following examples describe the in vitro evaluation of anticholinergic activity in the isolated guinea pig ileum. Fasted, male Hartley guinea pigs (300-400 g) were killed by a blow to the head. […] One end of the ileal strip was impaled onto a platinum wire electrode; and the other end was tied to a stationary glass rod. Basal tension was set at 0.1-0.3 g and peak developed tension in response to field stimulation (100-150 V, 10 msec pulse duration, 0.2 Hz) was measured with a tension transducer.

[2] = tested on: ventricular arrhythmias induced by ouabain (Ouabain dog); assay: Antiarrhythmic activity in the Ouabain dog model (i.v. infusion); format: in vivo; details: Ouabain dog, IV infusion, ED is the effective dose required to sustain normal sinus rhythm; for minimal effective dose: Canis lupus familiaris, read-out: Antiarrhythmic ED in Ouabain Dog
Description: The following examples describe the pharmacological evaluation of the compounds in accordance with the present invention. In particular, these examples describe the evaluation of antiarrhythmic activity in the Oubain dog model. […] The test compound was infused intravenously in saline at a rate of about 0.3 to about 5 mg/kg/min until normal sinus rhythm or toxicity occurred. Normal sinus rhythm was defined as 90-100% normal complexes over a 5 minute period.

Row | Compound | inhibition at 4 µg/mL [1] [%] | minimal effective dose [2] [mg/kg] | Antiarrhythmic ED in Ouabain Dog [2]
1 | O=C(Nc1cc(CN2CCCC2)c(O)c(CN2CCCC2)c1)c1ccccc1Cl [Example X, N--(2-chlorobenzoyl)-3,5,-bis(N--pyrrolidinylmethyl)-4-hydroxyaniline] | 0 | 5.8 | –
2 | O=C(Nc1cc(CN2CCCC2)c(O)c(CN2CCCC2)c1)c1cccs1 [Example XX, N--(2-thiophenecarbonyl)-3,5-bis(N--pyrrolidinylmethyl)-4-hydroxyaniline] | 4 | 1.9 | –
3 | O=C(NCc1cc(CN2CCCC2)c(O)c(CN2CCCC2)c1)c1ccccc1 [Example XXII, N-(benzoyl)-3,5-bis(pyrrolidinylmethyl)-4-hydroxybenzylamine] | 32 | 3 | –
4 | O=C(Cc1cccs1)Nc1cc(CN2CCCC2)c(O)c(CN2CCCC2)c1 [Example XXI] | 13 | – | low activity
5 | O=C(Nc1cc(CN2CCOCC2)c(O)c(CN2CCOCC2)c1)c1ccccc1 [Example XXXI, N-(benzoy)3,5-bis(morpholinomethyl)-4-hydroxyaniline] | 37 | 16.5 | –
6 | O=C(Nc1cc(CN2CCCCC2)c(O)c(CN2CCCCC2)c1)c1ccccc1 [Example XXXII, N-(benzoyl)3,5-bis(piperidinylmethyl)-4-hydroxyaniline] | 33 | 11 | –
7 | O=C(Nc1ccccc1)c1cc(CN2CCCC2)c(O)c(CN2CCCC2)c1 [Example XXXIII, N-([3,5-bis(pyrrolidinylmethyl)-4-hydroxy]benzoyl)-aniline] | – | 3.5 | –
8 | O=C(Nc1cc(CN2CCCC2)c(O)c(CN2CCCC2)c1)c1cccc(C(F)(F)F)c1 [IX, N--(3-trifluoromethylbenzoyl)-3,5,-bis(N--pyrrolidinylmethyl)-4-hydroxyaniline] | 62 | 2.25 | –
9 | Cc1cccc(C)c1C(=O)Nc1cc(CN2CCCC2)c(O)c(CN2CCCC2)c1 [IXX, N--(2,6,dimethylbenzoyl)-3,5,-bis(N--pyrrolidinylmethyl)-4-hydroxyaniline] | 15 | 4.3 | –
10 | O=C(Nc1cc(CN2CCCC2)c(O)c(CN2CCCC2)c1)c1ccc(Cl)cc1Cl [VI, N--(2,4,dichorobenzoyl)-3,5,-bis(N--pyrrolidinylmethyl)-4-hydroxyaniline] | 11 | – | low activity
11 | O=C(Nc1cc(CN2CCCC2)c(O)c(CN2CCCC2)c1)c1ccc([N+](=O)[O-])cc1 [VII, N--(4-nitrobenzoyl)-3,5,-bis(N--pyrrolidinylmethyl)-4-hydroxyaniline] | 24 | 11 | –
12 | COc1ccc(C(=O)Nc2cc(CN3CCCC3)c(O)c(CN3CCCC3)c2)cc1 [VIII, N--(4-methoxybenzoyl)-3,5,-bis(N--pyrrolidinylmethyl)-4-hydroxyaniline] | 24 | 7.2 | –
13 | O=C(Nc1cc(CN2CCCC2)c(O)c(CN2CCCC2)c1)c1cccc(Cl)c1 [XI, N--(3-chlorobenzoyl)-3,5,-bis(N--pyrrolidinylmethyl)-4-hydroxyaniline] | 37 | 3.75 | –
14 | O=C(Nc1cc(CN2CCCC2)c(O)c(CN2CCCC2)c1)c1ccccc1C(F)(F)F [XII, N--(2-trifluoromethylbenzoyl)-3,5,-bis(N--pyrrolidinylmethyl)-4-hydroxyaniline] | 0 | 6.2 | –
15 | COc1ccccc1C(=O)Nc1cc(CN2CCCC2)c(O)c(CN2CCCC2)c1 [XIV, N--(2-methoxybenzoyl)-3,5,-bis(N--pyrrolidinylmethyl)-4-hydroxyaniline] | 31 | 3 | –
16 | Cc1cccc(C(=O)Nc2cc(CN3CCCC3)c(O)c(CN3CCCC3)c2)c1 [XV, N--(3-methylbenzoyl)-3,5,-bis(N--pyrrolidinylmethyl)-4-hydroxyaniline] | 32 | 5.3 | –
